Data reported in patent US20090047218A1, “Method for producing albumin conjugates comprising an X-ray contrast medium as the active substance” (Albupharm Heidelberg GmbH & Co. KG, priority 2005, published 2009).

Test: Stability of iodine-containing X-ray contrast medium against radiation (iodine-starch reaction)
Type: physicochemical
Details: about 40 mg in 40 ml 0.1% starch solution
Protocol: Approximately 40 mg 2,3,5-triiodobenzoic acid (TIB) or another X-ray contrast medium that can be obtained commercially (diatrizoic acid or iotalamic acid etc.) is dissolved in 40 ml of a 0.1% starch solution while gently heating. 20 ml is in each case distributed to two Petri dishes (diameter 11.5 cm). Dish 1 is placed in full sunlight for 1 hour. Dish 2 is irradiated at a distance of 11 cm with a UV hand-held lamp (254 nm, 14 μW/cm^2).
This is even more significant because the energy of the UV irradiation (like the intensity of the irradiation source used) is approximately 100-fold lower than that of the X-ray irradiation of a computer tomograph.

## O=C(O)c1cc(I)cc(I)c1I [2,3,5-triiodobenzoic acid]
Dish 1, full sunlight for 1 hour
  colour of the solution (iodine-starch reaction) after exposure to daylight: still colourless
Dish 2, UV hand-held lamp 254 nm, 14 μW/cm^2, distance 11 cm
  colour of the solution (iodine-starch reaction) after UV irradiation: typical, intensive blue staining of the iodine-starch reaction
